{
  "source": "patent US20140106967A1",
  "about": "“AUXIN PLANT GROWTH REGULATORS” (The Governors of The University of Alberta, priority 2011, published 2014)",
  "test_system": "pea plants cv. 'Carneval'",
  "experiment": "Growth chamber experiment 2, pea 'Carneval' sprayed with 4-ME-IAA: peduncle/pedicel growth and seed yield, with or without heat stress (Tables P3-P12)",
  "format": "in vivo, Pisum sativum L.",
  "method": "For growth chamber experiment, seeds of ‘Carneval’ were planted at an approximate depth of 2.5 cm in 3-L plastic pots (4 seeds per pot and thinned to 2 plants per pot after approximately 2 weeks) in 1:1 Sunshine #4 potting mix (Sun Gro Horticulture, Vancouver, Canada) and sand. The experiment was arranged in a completely randomized design and grown at the University of Alberta in a growth chamber set at 19° C./17° C. (day/night) with a 16/8-h photoperiod under cool-white fluorescent lights (54W/835/HO high fluorescent bulbs, Phillips, Holland; 350 μE m^2 s^−2). For the heat stress treatment, plants were placed in a separate growth chamber with a 16/8-h photoperiod under cool-white fluorescent lights (F54/15/835/HO high fluorescent bulbs, Phillips, Holland) for 4 days where the temperature was cycled over a 24 hr period as follows: 33° C. air temperature for 6 hours per day (between 11:00 and 17:00 hrs) for 4 days during the light cycle; the remainder of the light cycle was maintained at a 22° C. air temperature; the dark cycle was maintained at 19° C. After the 4 day heat treatment, the plants were returned to the same growth chamber they were originally grown in, where they were taken to maturity.\nFor experiment 2, aqueous 4-methyl-indole-3-acetic acid (4-ME-IAA) solutions at 1×10^−7, 1×10^−6, 1×10^−5, or 1×10^−4 M in 0.1% (v/v) Tween 80 or aqueous 0.1% (v/v) Tween 80 (control) were applied as a spray to the entire plant to cover when the first flowering node of the main stem was near or at anthesis. In addition to the application at the timing cited above, one application of 4-ME-IAA at 1×10^−6 M or 1×10^−5 M was made when the floral buds were tightly clustered inside the stipule leaves at the stem apex (floral buds not visible outside of stipule leaves; designated the ‘Early’ treatment). In the heat stress treatment, the hormone or control treatment application was completed 16 hrs prior to the initiation of the first heat-stress cycle. The length and diameter (measured mid-length) of the lower and upper peduncles and pedicels of the inflorescence with two pods (or the lower peduncle and pedicel if a single pod node) at the first, second, third and fourth flowering nodes of the main stem of pea plants were determined for hormone-treated and control plants. Standard error of the mean (SE) was calculated for the means of all data for a measure of statistical significance in comparing treatment means.",
  "key": {"[1]": {"conditions": "1×10^−6 M, first flowering node, heat stress (33° C. 6 h/day, 4 days)"}, "[2]": {"conditions": "1×10^−6 M, first flowering node, no heat stress"}, "[3]": {"conditions": "1×10^−6 M, fourth flowering node, heat stress (33° C. 6 h/day, 4 days)"}, "[4]": {"conditions": "1×10^−6 M, fourth flowering node, no heat stress"}, "[5]": {"conditions": "1×10^−6 M, heat stress (33° C. 6 h/day, 4 days)"}, "[6]": {"conditions": "1×10^−6 M, second flowering node, heat stress (33° C. 6 h/day, 4 days)"}, "[7]": {"conditions": "1×10^−6 M, second flowering node, no heat stress"}, "[8]": {"conditions": "1×10^−6 M, third flowering node, heat stress (33° C. 6 h/day, 4 days)"}, "[9]": {"conditions": "1×10^−6 M, third flowering node, no heat stress"}, "[10]": {"conditions": "1×10^−7 M, applied near or at anthesis, no heat stress"}, "[11]": {"conditions": "1×10^−7 M, first flowering node, heat stress (33° C. 6 h/day, 4 days)"}},
  "data": [
    {"molecule": "Cc1cccc2[nH]cc(CC(=O)O)c12", "note": "[4-ME-IAA, 4-methyl-indole-3-acetic acid]", "values": [
      {"measurement": "Lower Peduncle diameter", "setting": "[1]", "result": "1.38 ± 0.08", "unit": "mm"},
      {"measurement": "Upper Pedicel Length", "setting": "[1]", "result": "8.29 ± 0.18", "unit": "mm"},
      {"measurement": "Upper Pedicel diameter", "setting": "[1]", "result": "1.43 ± 0.06", "unit": "mm"},
      {"measurement": "Upper Peduncle Length", "setting": "[1]", "result": "16.71 ± 1.55", "unit": "mm"},
      {"measurement": "Upper Peduncle diameter", "setting": "[1]", "result": "1.19 ± 0.07", "unit": "mm"},
      {"measurement": "Lower Pedicel Length", "setting": "[2]", "result": "9.40 ± 0.27", "unit": "mm"},
      {"measurement": "Lower Pedicel diameter", "setting": "[2]", "result": "1.70 ± 0.04", "unit": "mm"},
      {"measurement": "Lower Peduncle Length", "setting": "[2]", "result": "75.00 ± 4.00", "unit": "mm"},
      {"measurement": "Lower Peduncle diameter", "setting": "[2]", "result": "1.65 ± 0.03", "unit": "mm"},
      {"measurement": "Upper Pedicel Length", "setting": "[2]", "result": "9.40 ± 0.27", "unit": "mm"},
      {"measurement": "Upper Pedicel diameter", "setting": "[2]", "result": "1.54 ± 0.04", "unit": "mm"},
      {"measurement": "Upper Peduncle Length", "setting": "[2]", "result": "20.30 ± 1.54", "unit": "mm"},
      {"measurement": "Upper Peduncle diameter", "setting": "[2]", "result": "1.37 ± 0.05", "unit": "mm"},
      {"measurement": "Lower Pedicel Length", "setting": "[3]", "result": "7.40 ± 0.24", "unit": "mm"},
      {"measurement": "Lower Pedicel diameter", "setting": "[3]", "result": "1.49 ± 0.11", "unit": "mm"},
      {"measurement": "Lower Peduncle Length", "setting": "[3]", "result": "26.80 ± 4.55", "unit": "mm"},
      {"measurement": "Lower Peduncle diameter", "setting": "[3]", "result": "1.25 ± 0.06", "unit": "mm"},
      {"measurement": "Upper Pedicel Length", "setting": "[3]", "result": 8.00, "unit": "mm"},
      {"measurement": "Upper Pedicel diameter", "setting": "[3]", "result": 1.46, "unit": "mm"},
      {"measurement": "Upper Peduncle Length", "setting": "[3]", "result": 15.00, "unit": "mm"},
      {"measurement": "Upper Peduncle diameter", "setting": "[3]", "result": 1.33, "unit": "mm"},
      {"measurement": "Lower Pedicel Length", "setting": "[4]", "result": "8.80 ± 0.25", "unit": "mm"},
      {"measurement": "Lower Pedicel diameter", "setting": "[4]", "result": "1.34 ± 0.03", "unit": "mm"},
      {"measurement": "Lower Peduncle Length", "setting": "[4]", "result": "38.00 ± 3.63", "unit": "mm"},
      {"measurement": "Lower Peduncle diameter", "setting": "[4]", "result": "1.38 ± 0.05", "unit": "mm"},
      {"measurement": "Upper Pedicel Length", "setting": "[4]", "result": "8.33 ± 0.29", "unit": "mm"},
      {"measurement": "Upper Pedicel diameter", "setting": "[4]", "result": "1.24 ± 0.05", "unit": "mm"},
      {"measurement": "Upper Peduncle Length", "setting": "[4]", "result": "16.67 ± 0.69", "unit": "mm"},
      {"measurement": "Upper Peduncle diameter", "setting": "[4]", "result": "1.16 ± 0.03", "unit": "mm"},
      {"measurement": "Ratio of seed number on main stem to lateral stems", "setting": "[5]", "result": "2.0 ± 0.5"},
      {"measurement": "Seed number plant", "setting": "[5]", "result": "46.8 ± 3.3"},
      {"measurement": "Seed weight per per plant", "setting": "[5]", "result": "12.9 ± 0.9", "unit": "g"},
      {"measurement": "Weight per seed", "setting": "[5]", "result": "0.277 ± 0.005", "unit": "g"},
      {"measurement": "Lower Pedicel Length", "setting": "[6]", "result": "8.80 ± 0.36", "unit": "mm"},
      {"measurement": "Lower Pedicel diameter", "setting": "[6]", "result": "1.47 ± 0.05", "unit": "mm"},
      {"measurement": "Lower Peduncle Length", "setting": "[6]", "result": "47.10 ± 3.42", "unit": "mm"},
      {"measurement": "Lower Peduncle diameter", "setting": "[6]", "result": "1.28 ± 0.06", "unit": "mm"},
      {"measurement": "Upper Pedicel Length", "setting": "[6]", "result": "8.14 ± 0.14", "unit": "mm"},
      {"measurement": "Upper Pedicel diameter", "setting": "[6]", "result": "1.43 ± 0.04", "unit": "mm"},
      {"measurement": "Upper Peduncle Length", "setting": "[6]", "result": "16.86 ± 1.01", "unit": "mm"},
      {"measurement": "Upper Peduncle diameter", "setting": "[6]", "result": "1.20 ± 0.07", "unit": "mm"},
      {"measurement": "Lower Pedicel Length", "setting": "[7]", "result": "9.4 ± 0.27", "unit": "mm"},
      {"measurement": "Lower Pedicel diameter", "setting": "[7]", "result": "1.51 ± 0.04", "unit": "mm"},
      {"measurement": "Lower Peduncle Length", "setting": "[7]", "result": "58.20 ± 5.41", "unit": "mm"},
      {"measurement": "Lower Peduncle diameter", "setting": "[7]", "result": "1.51 ± 0.04", "unit": "mm"},
      {"measurement": "Upper Pedicel Length", "setting": "[7]", "result": "9.20 ± 0.33", "unit": "mm"},
      {"measurement": "Upper Pedicel diameter", "setting": "[7]", "result": "1.47 ± 0.04", "unit": "mm"},
      {"measurement": "Upper Peduncle Length", "setting": "[7]", "result": "19.00 ± 0.60", "unit": "mm"},
      {"measurement": "Upper Peduncle diameter", "setting": "[7]", "result": "1.26 ± 0.02", "unit": "mm"},
      {"measurement": "Lower Pedicel Length", "setting": "[8]", "result": "7.90 ± 0.28", "unit": "mm"},
      {"measurement": "Lower Pedicel diameter", "setting": "[8]", "result": "1.43 ± 0.05", "unit": "mm"},
      {"measurement": "Lower Peduncle Length", "setting": "[8]", "result": "34.50 ± 2.73", "unit": "mm"},
      {"measurement": "Lower Peduncle diameter", "setting": "[8]", "result": "1.33 ± 0.05", "unit": "mm"},
      {"measurement": "Upper Pedicel Length", "setting": "[8]", "result": "8.60 ± 0.24", "unit": "mm"},
      {"measurement": "Upper Pedicel diameter", "setting": "[8]", "result": "1.34 ± 0.04", "unit": "mm"},
      {"measurement": "Upper Peduncle Length", "setting": "[8]", "result": "15.80 ± 1.11", "unit": "mm"},
      {"measurement": "Upper Peduncle diameter", "setting": "[8]", "result": "1.17 ± 0.03", "unit": "mm"},
      {"measurement": "Lower Pedicel Length", "setting": "[9]", "result": "9.00 ± 0.30", "unit": "mm"},
      {"measurement": "Lower Pedicel diameter", "setting": "[9]", "result": "1.39 ± 0.04", "unit": "mm"},
      {"measurement": "Lower Peduncle Length", "setting": "[9]", "result": "45.90 ± 4.3", "unit": "mm"},
      {"measurement": "Lower Peduncle diameter", "setting": "[9]", "result": "1.49 ± 0.04", "unit": "mm"},
      {"measurement": "Upper Pedicel Length", "setting": "[9]", "result": "9.00 ± 0.29", "unit": "mm"},
      {"measurement": "Upper Pedicel diameter", "setting": "[9]", "result": "1.31 ± 0.04", "unit": "mm"},
      {"measurement": "Upper Peduncle Length", "setting": "[9]", "result": "18.00 ± 0.96", "unit": "mm"},
      {"measurement": "Upper Peduncle diameter", "setting": "[9]", "result": "1.17 ± 0.02", "unit": "mm"},
      {"measurement": "Ratio of seed number on main stem to lateral stems", "setting": "[10]", "result": "3.0 ± 0.4"},
      {"measurement": "Seed number per plant", "setting": "[10]", "result": "63.5 ± 6.8"},
      {"measurement": "Seed weight per plant", "setting": "[10]", "result": "15.5 ± 1.6", "unit": "g"},
      {"measurement": "Weight per seed", "setting": "[10]", "result": "0.245 ± 0.004", "unit": "g"},
      {"measurement": "increase in seed yield (seed weight per plant) vs control", "setting": "[10]", "result": 78, "unit": "%"},
      {"measurement": "Lower Pedicel Length", "setting": "[11]", "result": "9.40 ± 0.34", "unit": "mm"},
      {"measurement": "Lower Pedicel diameter", "setting": "[11]", "result": "1.73 ± 0.04", "unit": "mm"},
      {"measurement": "Lower Peduncle Length", "setting": "[11]", "result": "68.40 ± 5.39", "unit": "mm"},
      {"measurement": "Lower Peduncle diameter", "setting": "[11]", "result": "1.72 ± 0.05", "unit": "mm"},
      {"measurement": "Upper Pedicel Length", "setting": "[11]", "result": "9.00 ± 0.37", "unit": "mm"}
    ]}
  ]
}
